Values of other authors as cited in article PMC9851200, “Multiparameter phenotypic screening for endogenous TFEB and TFE3 translocation identifies novel chemical series modulating lysosome function” (Autophagy, 2022).

Assays:
Set-up in all cases: method as in original PKIS2 published data
[1] = biological target: kinases (KINOMEscan panel) (Homo sapiens, UniProt P24723); settings: kinase PRKCH; Published KINOMEscan; ref original PKIS2 published data; cited from earlier work
[2] = biological target: kinases (KINOMEscan panel) (Homo sapiens, UniProt Q9UM73); settings: kinase ALK; Published KINOMEscan; ref original PKIS2 published data; cited from earlier work
[3] = biological target: T1, kinases (KINOMEscan panel) (Homo sapiens, UniProt Q8IWQ3); settings: kinase BRSK2; Published KINOMEscan; ref original PKIS2 published data; cited from earlier work
T1 sequence (Q8IWQ3 1-736): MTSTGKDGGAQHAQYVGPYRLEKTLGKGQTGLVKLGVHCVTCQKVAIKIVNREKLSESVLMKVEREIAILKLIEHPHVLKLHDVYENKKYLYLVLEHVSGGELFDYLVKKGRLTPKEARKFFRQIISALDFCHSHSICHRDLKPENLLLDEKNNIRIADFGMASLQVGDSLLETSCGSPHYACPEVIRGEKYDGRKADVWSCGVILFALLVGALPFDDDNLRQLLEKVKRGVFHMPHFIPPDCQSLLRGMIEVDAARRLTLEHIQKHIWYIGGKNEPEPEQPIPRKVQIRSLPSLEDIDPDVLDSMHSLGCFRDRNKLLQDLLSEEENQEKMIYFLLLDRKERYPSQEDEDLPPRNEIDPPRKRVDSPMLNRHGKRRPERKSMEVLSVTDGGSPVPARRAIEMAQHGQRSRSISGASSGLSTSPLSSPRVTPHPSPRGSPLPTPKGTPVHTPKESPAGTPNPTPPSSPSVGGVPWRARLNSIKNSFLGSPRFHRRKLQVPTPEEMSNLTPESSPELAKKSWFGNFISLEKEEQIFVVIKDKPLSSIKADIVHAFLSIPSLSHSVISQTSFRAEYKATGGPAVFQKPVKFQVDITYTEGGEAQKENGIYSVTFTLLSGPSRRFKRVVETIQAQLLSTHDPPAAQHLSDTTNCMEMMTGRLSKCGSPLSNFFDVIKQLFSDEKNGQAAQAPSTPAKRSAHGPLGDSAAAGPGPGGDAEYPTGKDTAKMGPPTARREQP

[4] = biological target: kinases (KINOMEscan panel) (Homo sapiens, UniProt P07949); settings: kinase RET; Published KINOMEscan; ref original PKIS2 published data; cited from earlier work
[5] = biological target: T2, kinases (KINOMEscan panel) (Homo sapiens, UniProt O00329); settings: Published KINOMEscan; ref original PKIS2 published data; cited from earlier work
T2 sequence (O00329 1-1044): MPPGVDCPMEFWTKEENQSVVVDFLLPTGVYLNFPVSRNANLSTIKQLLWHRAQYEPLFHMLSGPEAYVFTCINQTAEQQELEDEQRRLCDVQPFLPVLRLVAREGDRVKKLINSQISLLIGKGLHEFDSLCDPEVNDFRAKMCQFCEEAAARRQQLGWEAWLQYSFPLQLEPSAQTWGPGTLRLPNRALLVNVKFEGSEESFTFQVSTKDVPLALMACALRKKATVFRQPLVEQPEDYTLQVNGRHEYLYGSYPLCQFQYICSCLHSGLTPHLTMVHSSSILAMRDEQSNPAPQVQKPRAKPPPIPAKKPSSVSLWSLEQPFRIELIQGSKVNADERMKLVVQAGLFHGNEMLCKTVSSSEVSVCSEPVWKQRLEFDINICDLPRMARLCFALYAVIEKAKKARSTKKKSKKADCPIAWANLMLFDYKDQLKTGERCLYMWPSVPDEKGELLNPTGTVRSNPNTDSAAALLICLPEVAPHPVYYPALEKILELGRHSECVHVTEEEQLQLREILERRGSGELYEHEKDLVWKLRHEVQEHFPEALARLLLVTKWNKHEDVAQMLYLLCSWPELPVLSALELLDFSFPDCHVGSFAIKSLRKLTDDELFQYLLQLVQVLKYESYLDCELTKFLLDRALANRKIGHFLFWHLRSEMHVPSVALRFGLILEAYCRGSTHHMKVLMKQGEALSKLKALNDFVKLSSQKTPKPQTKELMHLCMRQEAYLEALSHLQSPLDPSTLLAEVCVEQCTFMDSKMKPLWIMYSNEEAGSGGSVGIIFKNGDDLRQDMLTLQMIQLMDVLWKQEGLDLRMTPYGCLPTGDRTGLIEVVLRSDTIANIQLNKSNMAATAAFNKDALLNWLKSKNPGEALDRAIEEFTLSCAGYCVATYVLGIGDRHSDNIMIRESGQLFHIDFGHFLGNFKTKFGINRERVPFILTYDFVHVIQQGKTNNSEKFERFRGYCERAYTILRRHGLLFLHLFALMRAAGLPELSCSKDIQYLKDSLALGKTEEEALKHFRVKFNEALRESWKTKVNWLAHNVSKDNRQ

[6] = biological target: kinases (KINOMEscan panel) (Homo sapiens, UniProt P42338); settings: PIK3CB; Published KINOMEscan; ref original PKIS2 published data; cited from earlier work
[7] = biological target: kinases (KINOMEscan panel) (Homo sapiens, UniProt Q16816); settings: PHKG1; Published KINOMEscan; ref original PKIS2 published data; cited from earlier work
[8] = biological target: kinases (KINOMEscan panel) (Homo sapiens, UniProt P42685); settings: kinase FRK; Published KINOMEscan; ref original PKIS2 published data; cited from earlier work
[9] = biological target: kinases (KINOMEscan panel) (Homo sapiens, UniProt Q00526); settings: CDK3; Published KINOMEscan; ref original PKIS2 published data; cited from earlier work
[10] = biological target: kinases (KINOMEscan panel) (Homo sapiens, UniProt P29317); settings: EPHA2; Published KINOMEscan; ref original PKIS2 published data; cited from earlier work
[11] = biological target: kinases (KINOMEscan panel) (Homo sapiens, UniProt O43683); settings: kinase BUB1; Published KINOMEscan; ref original PKIS2 published data; cited from earlier work

Sequence of kinases (KINOMEscan panel) (Homo sapiens, UniProt Q16816) (Q16816 whole entry): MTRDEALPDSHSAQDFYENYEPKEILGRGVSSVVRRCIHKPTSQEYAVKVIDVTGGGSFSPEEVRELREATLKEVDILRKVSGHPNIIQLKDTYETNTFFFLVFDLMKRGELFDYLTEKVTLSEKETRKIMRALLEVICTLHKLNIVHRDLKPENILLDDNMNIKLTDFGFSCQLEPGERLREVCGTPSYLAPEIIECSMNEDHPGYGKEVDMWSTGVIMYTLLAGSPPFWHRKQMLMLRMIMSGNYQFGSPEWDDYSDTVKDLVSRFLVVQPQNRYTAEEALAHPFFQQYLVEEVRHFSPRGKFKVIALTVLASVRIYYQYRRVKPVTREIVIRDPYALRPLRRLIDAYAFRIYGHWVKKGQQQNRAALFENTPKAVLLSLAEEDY
Sequence of kinases (KINOMEscan panel) (Homo sapiens, UniProt P24723) (P24723 whole entry): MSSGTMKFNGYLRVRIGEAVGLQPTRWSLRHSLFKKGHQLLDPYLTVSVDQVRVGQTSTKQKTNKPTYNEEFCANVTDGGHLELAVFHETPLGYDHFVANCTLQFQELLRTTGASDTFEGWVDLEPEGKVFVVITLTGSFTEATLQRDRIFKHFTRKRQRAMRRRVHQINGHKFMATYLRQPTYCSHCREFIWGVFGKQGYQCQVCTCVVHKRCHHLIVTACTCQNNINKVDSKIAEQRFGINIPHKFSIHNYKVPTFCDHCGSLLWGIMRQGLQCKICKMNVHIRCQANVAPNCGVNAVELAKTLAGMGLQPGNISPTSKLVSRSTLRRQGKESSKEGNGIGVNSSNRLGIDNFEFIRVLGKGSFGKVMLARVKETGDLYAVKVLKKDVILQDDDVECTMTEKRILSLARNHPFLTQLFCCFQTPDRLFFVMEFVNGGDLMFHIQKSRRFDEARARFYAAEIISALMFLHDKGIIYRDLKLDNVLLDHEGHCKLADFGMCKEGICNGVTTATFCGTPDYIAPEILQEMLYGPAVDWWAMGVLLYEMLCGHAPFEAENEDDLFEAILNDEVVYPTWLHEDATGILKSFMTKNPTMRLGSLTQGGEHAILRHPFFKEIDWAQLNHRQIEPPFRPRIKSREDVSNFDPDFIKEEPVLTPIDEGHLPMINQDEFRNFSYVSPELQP
Sequence of kinases (KINOMEscan panel) (Homo sapiens, UniProt P42338) (P42338 whole entry): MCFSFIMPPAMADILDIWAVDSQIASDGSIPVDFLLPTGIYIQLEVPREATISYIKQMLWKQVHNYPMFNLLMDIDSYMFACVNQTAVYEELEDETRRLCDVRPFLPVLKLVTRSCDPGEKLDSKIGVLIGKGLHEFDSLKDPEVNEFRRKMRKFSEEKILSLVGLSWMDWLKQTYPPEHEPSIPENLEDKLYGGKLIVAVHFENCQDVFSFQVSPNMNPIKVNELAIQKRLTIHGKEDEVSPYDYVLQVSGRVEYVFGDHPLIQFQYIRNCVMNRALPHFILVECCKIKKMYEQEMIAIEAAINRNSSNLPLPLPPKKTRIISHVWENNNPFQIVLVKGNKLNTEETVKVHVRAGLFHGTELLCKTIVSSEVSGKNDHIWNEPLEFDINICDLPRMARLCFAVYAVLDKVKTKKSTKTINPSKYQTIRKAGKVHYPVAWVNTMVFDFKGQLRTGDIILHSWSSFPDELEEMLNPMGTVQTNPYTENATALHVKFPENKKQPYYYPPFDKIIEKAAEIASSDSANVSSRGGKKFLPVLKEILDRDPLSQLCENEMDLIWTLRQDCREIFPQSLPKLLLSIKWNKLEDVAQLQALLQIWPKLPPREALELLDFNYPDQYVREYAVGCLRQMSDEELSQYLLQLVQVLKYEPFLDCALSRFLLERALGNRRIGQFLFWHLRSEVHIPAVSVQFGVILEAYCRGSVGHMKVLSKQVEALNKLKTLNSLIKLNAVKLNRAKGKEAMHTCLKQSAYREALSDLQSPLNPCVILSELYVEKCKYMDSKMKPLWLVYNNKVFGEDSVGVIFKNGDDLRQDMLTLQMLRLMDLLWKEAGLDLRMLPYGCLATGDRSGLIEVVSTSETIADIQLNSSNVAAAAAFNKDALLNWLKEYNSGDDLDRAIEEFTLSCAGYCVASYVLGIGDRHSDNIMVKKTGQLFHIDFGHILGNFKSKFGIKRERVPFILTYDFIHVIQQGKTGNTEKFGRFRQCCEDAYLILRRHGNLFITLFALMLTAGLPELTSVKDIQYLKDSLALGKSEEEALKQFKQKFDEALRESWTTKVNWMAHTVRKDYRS
Sequence of kinases (KINOMEscan panel) (Homo sapiens, UniProt Q9UM73) (Q9UM73 19-1620): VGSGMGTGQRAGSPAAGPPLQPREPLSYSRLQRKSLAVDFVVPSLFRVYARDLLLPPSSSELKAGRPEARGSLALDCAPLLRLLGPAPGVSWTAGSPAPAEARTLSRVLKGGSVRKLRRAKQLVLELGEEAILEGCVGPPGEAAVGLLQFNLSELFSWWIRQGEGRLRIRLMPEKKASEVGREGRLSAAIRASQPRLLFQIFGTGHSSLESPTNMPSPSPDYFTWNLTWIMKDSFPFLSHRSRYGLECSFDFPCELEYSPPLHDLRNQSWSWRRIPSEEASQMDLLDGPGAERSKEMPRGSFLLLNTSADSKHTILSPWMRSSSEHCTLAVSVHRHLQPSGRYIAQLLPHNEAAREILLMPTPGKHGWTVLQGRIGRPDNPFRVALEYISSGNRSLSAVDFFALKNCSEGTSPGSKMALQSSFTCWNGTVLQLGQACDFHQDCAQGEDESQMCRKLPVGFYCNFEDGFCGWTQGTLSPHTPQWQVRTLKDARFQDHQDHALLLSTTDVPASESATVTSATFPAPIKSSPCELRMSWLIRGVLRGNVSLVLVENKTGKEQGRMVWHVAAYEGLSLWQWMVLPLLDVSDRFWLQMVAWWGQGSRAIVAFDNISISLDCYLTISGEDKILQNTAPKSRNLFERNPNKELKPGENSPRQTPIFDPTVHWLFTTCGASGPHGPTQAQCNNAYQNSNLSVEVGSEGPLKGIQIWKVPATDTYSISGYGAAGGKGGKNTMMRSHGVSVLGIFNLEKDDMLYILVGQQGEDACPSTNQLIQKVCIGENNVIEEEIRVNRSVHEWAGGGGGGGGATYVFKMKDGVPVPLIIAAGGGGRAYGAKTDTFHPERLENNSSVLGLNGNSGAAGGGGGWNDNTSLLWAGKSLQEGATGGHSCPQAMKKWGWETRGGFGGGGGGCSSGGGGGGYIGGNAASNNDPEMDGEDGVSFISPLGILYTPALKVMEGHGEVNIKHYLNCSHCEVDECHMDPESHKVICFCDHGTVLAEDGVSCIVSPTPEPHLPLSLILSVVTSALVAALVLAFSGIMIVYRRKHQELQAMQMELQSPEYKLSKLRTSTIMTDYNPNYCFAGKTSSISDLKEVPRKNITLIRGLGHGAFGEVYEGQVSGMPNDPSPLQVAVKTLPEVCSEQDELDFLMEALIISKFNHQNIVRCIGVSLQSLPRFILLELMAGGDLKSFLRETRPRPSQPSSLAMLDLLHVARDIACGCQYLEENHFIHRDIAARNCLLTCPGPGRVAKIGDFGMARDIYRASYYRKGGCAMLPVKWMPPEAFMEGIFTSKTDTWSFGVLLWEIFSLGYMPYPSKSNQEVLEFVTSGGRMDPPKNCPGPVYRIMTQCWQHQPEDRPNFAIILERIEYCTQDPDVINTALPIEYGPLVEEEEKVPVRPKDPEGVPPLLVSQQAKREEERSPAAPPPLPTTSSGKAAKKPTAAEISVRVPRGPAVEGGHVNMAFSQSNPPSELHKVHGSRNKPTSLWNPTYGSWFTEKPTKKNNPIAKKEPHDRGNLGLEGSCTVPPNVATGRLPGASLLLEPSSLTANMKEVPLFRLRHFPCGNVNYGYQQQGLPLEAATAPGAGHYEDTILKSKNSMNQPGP
Sequence of kinases (KINOMEscan panel) (Homo sapiens, UniProt P42685) (P42685 whole entry): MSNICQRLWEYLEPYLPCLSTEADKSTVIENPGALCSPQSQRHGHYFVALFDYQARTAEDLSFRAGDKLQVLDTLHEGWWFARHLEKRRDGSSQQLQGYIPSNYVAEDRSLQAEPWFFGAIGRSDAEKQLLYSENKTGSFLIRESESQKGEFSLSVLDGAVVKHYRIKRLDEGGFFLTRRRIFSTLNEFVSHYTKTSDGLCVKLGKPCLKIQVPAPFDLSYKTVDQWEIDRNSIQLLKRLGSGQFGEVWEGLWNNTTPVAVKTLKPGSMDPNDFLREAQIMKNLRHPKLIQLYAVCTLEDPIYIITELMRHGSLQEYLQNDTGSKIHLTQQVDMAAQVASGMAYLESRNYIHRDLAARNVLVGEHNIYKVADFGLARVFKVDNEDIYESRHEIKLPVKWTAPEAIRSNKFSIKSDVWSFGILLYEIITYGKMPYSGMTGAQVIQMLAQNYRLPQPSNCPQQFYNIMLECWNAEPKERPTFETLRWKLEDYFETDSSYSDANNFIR
Sequence of kinases (KINOMEscan panel) (Homo sapiens, UniProt Q00526) (Q00526 whole entry): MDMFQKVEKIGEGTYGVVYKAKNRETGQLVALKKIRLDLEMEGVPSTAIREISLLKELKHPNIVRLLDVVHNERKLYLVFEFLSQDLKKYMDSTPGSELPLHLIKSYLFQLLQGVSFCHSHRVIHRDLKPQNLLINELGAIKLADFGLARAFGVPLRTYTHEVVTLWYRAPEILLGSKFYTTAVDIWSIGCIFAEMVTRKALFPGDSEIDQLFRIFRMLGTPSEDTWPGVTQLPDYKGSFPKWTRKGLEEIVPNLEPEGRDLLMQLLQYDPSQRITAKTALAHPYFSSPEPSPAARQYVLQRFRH

Cc1cccc(-c2nc(Nc3ccncc3)c3ccccc3n2)n1 [NK215]
KINOMEscan PRKCH [1]: 0
KINOMEscan ALK [2]: 0
KINOMEscan BRSK2 [3]: 11
KINOMEscan RET [4]: 9
KINOMEscan PIK3CD [5]: 0
KINOMEscan PIK3CB [6]: 0
KINOMEscan PHKG1 [7]: 47
KINOMEscan FRK [8]: 15
KINOMEscan CDK3 [9]: 20
KINOMEscan EPHA2 [10]: 18
KINOMEscan BUB1 [11]: 0
